One assay deals with OVCAR-3. In words: in vitro activity against human ovarian cell line OVCAR-3 (Table 2). The assay is classed as cell-based. The text has this: (§1) Tables 1 to 4 at the end of the present description show in vitro test results obtained in various sets of experiments for the cytotoxic activity of several of the benzazole compounds concerned, including also for reference results for the compound CJM 126 and comparative results for compound DF129, when tested against a range of tumor cell lines which includes ovarian, lung and certain colon and renal cancer cells from the National Cancer Institute (USA) collection. As usual the results are expressed in terms of IS50 values (concentration or dosage required to reduce cell growth or proliferation by 50%) calculated from dose-effect curves plotted for cultures of the cells in question.
In carrying out the in vitro studies, the cytotoxicity assays may be carried out by a method corresponding substantially to the following example: […]
(§2) On day 7 the test was terminated by the addition of 100 μl saline containing 0.002% w/v propidium iodide (Sigma), 0.3% drawing ink (Staedtler "Marsmatic 745"--Trade Mark) and 0.5% Triton X-100. The plates were kept at 4° C. overnight before reading on an inverted microscope equipped with an automated scanning stage. Fluorescence intensity was measured in arbitrary units by a photomultiplier. […]

The next assay deals with MT-3. The assay is described as follows: in vivo antitumor test, human breast carcinoma MT-3 xenotransplanted in nude mice. To be noted: MT-3, optimum dose 12.5 mg/Kg/inj i.p., qd 7, 14, 21. How it is done:
(§3) In one typical set of experiments, four human breast carcinomas xenotransplanted into female Ncr: nu/nu (Taconic, Germantown, U.S.A.) or male Bom: NMRI-nu/nu mice (Bomholtgaard, Ry, Denmark) were used for the evaluation of antitumor activity. Mice weighing 20-25 g at the start of experiments were held under sterile conditions at 24-26° C., 50% relative humidity and 12 hours light-dark rhythm in laminar flow shelves. The animals received autoclaved food and bedding; the drinking water was filtered and acidified (pH4.0).
(§4) The following breast carcinoma cell lines were used: BO; MCF-7 (NCI, U.S.A.); MT-1 and MT-3. The tumors BO and MCF-7 are ER^+ models: the carcinomas MT-1 and MT-3 are ER^- ones. Tumors were transplanted subcutaneously (s.c.) as pieces (2×2 mm) into the left flank of 5-8 nude mice/experimental group. Drug treatment was initiated when the tumors reached a diameter of 4-5 mm. […] Tumor size was measured twice weekly with a caliper. Median tumor volume/group was related to the first treatment day and expressed as Relative Tumor Volume (RTV). For the estimation of toxicity, body weight was determined twice weekly and the mean percentage body weight change (BCC) was calculated. In one experiment blood was obtained from the retroorbital venous plexus of mice and blood cells were determined with a Coulter counter (Model T41).

For a further assay, the system named is MCF-7B. The assay is described as follows: in vitro inhibitory activity against human breast tumour cell line MCF-7B (Table 4). It is filed as cell-based. To be noted: initial seeding density 2.5 × 10^2 cells/well.
Description: as §1
In carrying out the in vitro studies, the cytotoxicity assays may be carried out by a method corresponding substantially to the following example:
Cells were maintained in a continuous logarithmic culture in Dublecco's medium supplemented with 10% fetal calf serum and penicillin (100 IU/ml) and streptomycin ([…]). The cells were mildly trypsinized for passage and for use in assays. On day zero, 100 μl of trypsinized tumor cells (1×10^4 /ml) were plated in the wells of 96-well flat-bottom microtiter plates. The plates were incubated for 2 days at 37° C. and 5% CO2 in air to allow the cells to adhere and resume exponential growth prior to the addition of drugs.
On day two 50 μl of the highest drug concentration was added to the wells of column 12 and from there serially diluted 3-fold to column 1 by serial transfer of 50 μl using an 8-channel micropipette. The final volume of column 1 was adjusted to 100 μl. No additions were made to the wells of rows A and B, which served as controls. […]
as §2

For the next assay, the system named is MT-1. In words: in vivo antitumor test, human breast carcinoma MT-1 xenotransplanted in nude mice. The settings on record: MT-1, optimum dose 6.25 mg/Kg/inj i.p., qd 7, 14, 21. Here is the method:
as §3, §4

The mark [1] stands for this setting: marked * significant versus control.

For the molecule `Nc1ccc(-c2nc3ccccc3s2)cc1I` [DF129, 2-(4'-amino-3'-iodophenyl)benzothiazole], in the assay with OVCAR-3, the IC50 (in general, the point on the concentration scale where inhibition reaches its midpoint) stood at 600 nM. This lies in the sub-micromolar range.

On to `Cc1cc(-c2nc3ccccc3s2)ccc1N` [DF203, 2-(4'-amino-3'-methylphenyl)benzothiazole], for which the evaluation entry in the assay on MT-3 and with MT-1 was “++ (T/C = 21-35%)” throughout. In addition, the “RTV, relative tumor volume (T/C %)” value is on record as 22% with MT-3 (setting [1]) and 34% in the assay with MT-1 (setting [1]). In the assay on MCF-7B, inhibition was half-maximal at 10 nM (IC50).

The values are drawn from US6034246A, “2-arylbenzazole compounds” (Cancer Research Campaign Technology Limited, priority 1995, dated 2000).
